The text below walks through data of PMC7503500, “A Structure-Activity Relationship Comparison of Imidazodiazepines Binding at Kappa, Mu, and Delta Opioid Receptors and the GABAA Receptor” (Molecules, 2020).

The test system of test [1] is synaptic benzodiazepine-sensitive receptors (BZR), GABAAR. As to the kind of experiment: 3H-flunitrazepam binding, rat brain homogenate. The following applies: for BZR % (percent inhibition): at 10,000 nM; for Ki: read-out: BZR (Ki).
Test [2] addresses µ opioid receptor (MOR) (Homo sapiens, UniProt P35372). The experiment in a line: Radioligand competition binding, MOR ([3H]-DAMGO), HEK293 cell homogenates. To be noted: [3H]-DAMGO; for MOR % (percent inhibition): at 10,000 nM; for inhibition at 10 µM: read-out: MOR % (percent inhibition), at 10,000 nM.
The target in test [3] is δ opioid receptor (DOR) (Homo sapiens, UniProt P41143). The experiment in a line: Radioligand competition binding, DOR ([3H]-DADLE), HEK293 cell homogenates. The following applies: for DOR % (percent inhibition): at 10,000 nM; for inhibition at 10 µM: read-out: DOR % (percent inhibition), at 10,000 nM.
In test [4] the target is κ opioid receptor (KOR) (Homo sapiens, UniProt P41145). The experiment in a line: Radioligand competition binding, KOR ([3H]-U69593), HEK293 cell homogenates. The following applies: for KOR % (percent inhibition): at 10,000 nM; for KOR % (percent inhibition) / inhibition at 10 µM: [3H]-U69593; for inhibition at 10 µM: read-out: KOR % (percent inhibition), at 10,000 nM.
Where [5] appears, read: read-out: KOR (Ki), [3H]-U69593, HEK293 homogenates.

Read-outs that look alike come from different tables or passages of the source.

Take `C#Cc1ccc2c(c1)C(c1ccccc1F)=N[C@H](C)c1c(-c3cnco3)ncn1-2` [GL-III-73]: in test [1], the “BZR % (percent inhibition)” value is on record as 65% and the Ki came to 602 nM. The “MOR % (percent inhibition)” value in test [2] turned out to be 12%. Further, the “DOR % (percent inhibition)” value in test [3] was found to be 4%. In test [4], the “KOR % (percent inhibition)” value is 74%. Also, in test [4] (setting [5]), the Ki came out at 449 nM.

As for `C[C@@H]1N=C(c2ccccc2F)c2cc(Br)ccc2-n2cnc(-c3cnco3)c21` [GL-III-76], the “BZR % (percent inhibition)” value in test [1] stood at 100%. For the same molecule, the Ki in test [1] came to 120 nM; in test [4] (setting [5]), 221 nM. For the same molecule, the “MOR % (percent inhibition)” value in test [2] is on record as 3%. Moreover, in test [3], the “DOR % (percent inhibition)” value amounted to 0%. In test [4], the “KOR % (percent inhibition)” value turned out to be 83%.

With `C#Cc1ccc2c(c1)C(c1ccccc1F)=N[C@@H](C)c1c(-c3cnco3)ncn1-2` [GL-III-78], in test [1], the “BZR % (percent inhibition)” value came out at 101% and the Ki was 261 nM. Besides, the “MOR % (percent inhibition)” value in test [2] is 10%. Further, the “DOR % (percent inhibition)” value in test [3] is 9%. The “KOR % (percent inhibition)” value in test [4] turned out to be 74%. For the same molecule, the Ki in test [4] (setting [5]) came to 451 nM.

Take `C#Cc1ccc2c(c1)C(c1ccccc1F)=NCc1c(-c3cnco3)ncn1-2` [KRM-II-18B]: the “BZR % (percent inhibition)” value in test [1] was 97%. The figures for the inhibitory constant (Ki) in test [1] and in test [4] were 38 nM and 361 nM, respectively. In addition, the inhibition at 10 µM in test [2] amounted to 11%; in test [3], 20%; in test [4], 89%.

Turning to `Brc1ccc2c(c1)C(c1ccccc1)=NCc1c(-c3cnco3)ncn1-2` [KRM-II-73], in test [1], the “BZR % (percent inhibition)” value stood at 97%. In addition, the inhibition constant Ki worked out at 45 nM in test [1] and 736 nM in test [4]. Moreover, the inhibition at 10 µM came out at 11% in test [2], 32% in test [3] and 83% in test [4].

With `Cc1ncoc1-c1ncn2c1CN=C(c1ccccn1)c1cc(Br)ccc1-2` [KRM-II-81], the “BZR % (percent inhibition)” value in test [1] came to 86%. Further, the Ki in test [1] came out at 294 nM. In addition, the figures for the inhibition at 10 µM in test [2], in test [3] and in test [4] were 7%, 15% and 46%, respectively. Moreover, the “KOR affinity (in words)” value in test [4] (screening at 10,000 nM) is on record as “insignificant KOR affinity”.

Take `C#Cc1ccc2c(c1)C(c1ccccc1)=NCc1c(-c3cnco3)ncn1-2` [KRM-II-82]: in test [1], the “BZR % (percent inhibition)” value turned out to be 95%. The Ki was 96 nM in test [1] and 1200 nM in test [4]. Also, the figures for the inhibition at 10 µM in test [2], in test [3] and in test [4] were 5%, 20% and 78%, respectively.

Take `Brc1ccc2c(c1)C(c1ccccn1)=NCc1c(-c3cnco3)ncn1-2` [KRM-II-97]: in test [1], the “BZR % (percent inhibition)” value was determined as 93%. Moreover, the results for the Ki in test [1] and in test [4] were 140 nM and 1960 nM, respectively. For the same molecule, the inhibition at 10 µM amounted to 18% in test [2], 8% in test [3] and 62% in test [4].

In the case of `Cc1ncoc1-c1ncn2c1CN=C(c1ccccc1F)c1cc(Br)ccc1-2` [KRM-III-59], in test [1], the “BZR % (percent inhibition)” value amounted to 96%. Also, the inhibition constant (Ki) came out at 20 nM in test [1] and 408 nM in test [4]. The inhibition at 10 µM in test [2] worked out at 0%; in test [3] it was 11%; in test [4], 73%.

For the molecule `C#Cc1ccc2c(c1)C(c1ccccc1F)=NCc1c(-c3ocnc3C)ncn1-2` [KRM-III-65], the “BZR % (percent inhibition)” value in test [1] is recorded as 96%. Moreover, the Ki in test [1] came to 45 nM; in test [4] it was 879 nM. Also, the values for the inhibition at 10 µM in test [2], in test [3] and in test [4] were 0%, 16% and 64%, respectively.

For `Cc1ncoc1-c1ncn2c1CN=C(c1ccccc1)c1cc(Br)ccc1-2` [KRM-III-66], the “BZR % (percent inhibition)” value in test [1] was 86%. Also, the Ki in test [1] stood at 49 nM; in test [4], 756 nM. The results for the inhibition at 10 µM in test [2], in test [3] and in test [4] were 12%, 11% and 67%, respectively.

As to `C#Cc1ccc2c(c1)C(c1ccccn1)=NCc1c(-c3cnco3)ncn1-2` [KRM-III-67], in test [1], the “BZR % (percent inhibition)” value is recorded as 71%. In addition, in test [1], the Ki is 144 nM. In addition, the inhibition at 10 µM in test [2] worked out at 30%; in test [3] it was 3%; in test [4] it was 48%.

As for `C#Cc1ccc2c(c1)C(c1ccccn1)=NCc1c(-c3ocnc3C)ncn1-2` [KRM-III-79], the “BZR % (percent inhibition)” value in test [1] was 81%. For the same molecule, the inhibition constant Ki in test [1] amounted to 308 nM. The inhibition at 10 µM in test [2] was found to be 32%; in test [3] it was 1%; in test [4] it was 9%.

As for `C#Cc1ccc2c(c1)C(c1ccccn1)=NCc1c(C(=O)OC(C)C)ncn1-2` [MP-II-068], in test [1], the “BZR % (percent inhibition)” value was 97%. Besides, the Ki is 42 nM in test [1] and 550 nM in test [4]. Besides, the results for the inhibition at 10 µM in test [2], in test [3] and in test [4] were 0%, 34% and 85%, respectively. For the same molecule, the “Affinity towards KOR as % of the GL-I-30-KOR binding affinity” value in test [4] is 4.9%.

In the case of `C#Cc1ccc2c(c1)C(c1ccccc1F)=NCc1c(C(=O)OCc3ccccc3)ncn1-2` [MP-II-075], the “BZR % (percent inhibition)” value in test [1] was 98%. For the same molecule, the Ki in test [1] is 21 nM; in test [4] (setting [5]), 547 nM. Further, the inhibition at 10 µM turned out to be 0% in test [2], 16% in test [3] and 84% in test [4].

For `C#Cc1ccc2c(c1)C(c1ccccc1F)=N[C@H](C)c1c(C(=O)OC)ncn1-2` [MP-III-004], in test [1], the “BZR % (percent inhibition)” value is 78%. Also, the values for the Ki in test [1] and in test [4] were 445 nM and 599 nM, respectively. For the same molecule, the inhibition at 10 µM is 0% in test [2], 24% in test [3] and 76% in test [4].

Turning to `C#Cc1ccc2c(c1)C(c1ccccc1F)=N[C@@H](C)c1c(C(N)=O)ncn1-2` [MP-III-018.B], in test [1], the “BZR % (percent inhibition)” value is 97%. Also, the Ki was 17 nM in test [1] and 2780 nM in test [4]. Also, the values for the inhibition at 10 µM in test [2], in test [3] and in test [4] were 2%, 10% and 51%, respectively.

Turning to `C#Cc1ccc2c(c1)C(c1ccccc1F)=N[C@H](C)c1c(C(N)=O)ncn1-2` [MP-III-019.B], the “BZR % (percent inhibition)” value in test [1] is reported as 94%. Besides, the Ki in test [1] amounted to 54 nM; in test [4], 1530 nM. Besides, the values for the inhibition at 10 µM in test [2], in test [3] and in test [4] were 2%, 0% and 62%, respectively.

Consider `C#Cc1ccc2c(c1)C(c1ccccc1F)=N[C@@H](C)c1c(C(=O)OC)ncn1-2` [MP-III-021], for which the “BZR % (percent inhibition)” value in test [1] came out at 88%. Besides, the Ki in test [1] stood at 219 nM; in test [4] it was 122 nM. For the same molecule, the inhibition at 10 µM in test [2] is 0%; in test [3], 22%; in test [4] it was 93%.

For the molecule `C#Cc1ccc2c(c1)C(c1ccccc1F)=N[C@H](C)c1c(C(=O)NC)ncn1-2` [MP-III-022], the “BZR % (percent inhibition)” value in test [1] was 95%. The Ki in test [1] was found to be 83 nM. Moreover, the inhibition at 10 µM in test [2] was determined as 3%; in test [3], 22%; in test [4] it was 80%.

Regarding `C#Cc1ccc2c(c1)C(c1ccccc1F)=N[C@@H](C)c1c(C(=O)NC)ncn1-2` [MP-III-023], the “BZR % (percent inhibition)” value in test [1] was 97%. The inhibition constant Ki in test [1] turned out to be 37 nM; in test [4], 119 nM. In addition, the results for the inhibition at 10 µM in test [2], in test [3] and in test [4] were 0%, 16% and 91%, respectively.

Take `C#Cc1ccc2c(c1)C(c1ccccn1)=NCc1c(C(=O)OC)ncn1-2` [MP-III-024]: in test [1], the “BZR % (percent inhibition)” value is 81%. Besides, in test [1], the Ki turned out to be 277 nM. In addition, the inhibition at 10 µM came out at 0% in test [2], 24% in test [3] and 43% in test [4].

In the case of `COC(=O)c1ncn2c1[C@@H](C)N=C(c1ccccc1F)c1cc(Br)ccc1-2` [MP-III-058], the “BZR % (percent inhibition)” value in test [1] is reported as 86%. Besides, the Ki in test [1] amounted to 290 nM; in test [4] it was 237 nM. Besides, the inhibition at 10 µM in test [2] worked out at 0%; in test [3] it was 4%; in test [4], 84%.

For `C#Cc1ccc2c(c1)C(c1ccccn1)=NCc1c(-c3nc(CC)no3)ncn1-2` [MP-III-080], the “BZR % (percent inhibition)” value in test [1] is reported as 88%. In addition, in test [1], the Ki is 303 nM. Also, the inhibition at 10 µM in test [2] was 0%; in test [3], 0%; in test [4], 47%.

On to `C#Cc1ccc2c(c1)C(c1ccccn1)=NCc1c(-c3nc(C)no3)ncn1-2` [MP-III-085], for which the “BZR % (percent inhibition)” value in test [1] came to 82%. Moreover, the Ki in test [1] is 357 nM. Further, the inhibition at 10 µM in test [2] was found to be 0%; in test [3], 0%; in test [4], 40%.

As to `C#Cc1ccc2c(c1)C(c1ccccc1F)=N[C@H](C)c1c(-c3nc(C)no3)ncn1-2` [MP-IV-004], in test [1], the “BZR % (percent inhibition)” value was 63% and the inhibitory constant (Ki) came to 1080 nM. The “MOR % (percent inhibition)” value in test [2] is 7%. For the same molecule, the “DOR % (percent inhibition)” value in test [3] is recorded as 10%. Besides, in test [4], the “KOR % (percent inhibition)” value is recorded as 86%. Moreover, the Ki in test [4] (setting [5]) was determined as 444 nM.

For the molecule `C#Cc1ccc2c(c1)C(c1ccccc1F)=N[C@H](C)c1c(-c3nc(C(C)C)no3)ncn1-2` [MP-IV-010], in test [1], the “BZR % (percent inhibition)” value was 64% and the inhibition constant (Ki) amounted to 814 nM. Further, in test [2], the “MOR % (percent inhibition)” value was determined as 33%. In addition, in test [3], the “DOR % (percent inhibition)” value was determined as 5%. Also, the “KOR % (percent inhibition)” value in test [4] is on record as 94%. In test [4] (setting [5]), the Ki was found to be 145 nM.
